Measurements from patent US10494332B2, “Protein tyrosine phosphatases or SHP2 inhibitors and uses thereof” (Indiana University Research and Technology Corporation, priority 2015, dated 2019).
Values joined by “and” are separate entries in the source; they are usually repeats but may differ in a detail not shown here. Equal values may be shown once. Read-outs that look alike come from different tables or passages of the source.

Experiments:
mPTPA = mPTPA (Mycobacterium tuberculosis, UniProt P9WIA1); assay: biochemical
mPTPA, sequence (P9WIA1 whole entry): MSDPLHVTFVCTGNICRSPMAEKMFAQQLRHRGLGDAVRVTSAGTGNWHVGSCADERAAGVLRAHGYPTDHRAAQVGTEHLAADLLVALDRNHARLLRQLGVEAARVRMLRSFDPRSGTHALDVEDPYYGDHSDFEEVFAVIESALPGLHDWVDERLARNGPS

SHP1 = SHP1 (Homo sapiens, UniProt P29350); assay: PTP inhibition assay (pNPP); assay type: biochemical; details: pNPP at Km, pH 7.0, 25° C.
SHP1, sequence (P29350 whole entry): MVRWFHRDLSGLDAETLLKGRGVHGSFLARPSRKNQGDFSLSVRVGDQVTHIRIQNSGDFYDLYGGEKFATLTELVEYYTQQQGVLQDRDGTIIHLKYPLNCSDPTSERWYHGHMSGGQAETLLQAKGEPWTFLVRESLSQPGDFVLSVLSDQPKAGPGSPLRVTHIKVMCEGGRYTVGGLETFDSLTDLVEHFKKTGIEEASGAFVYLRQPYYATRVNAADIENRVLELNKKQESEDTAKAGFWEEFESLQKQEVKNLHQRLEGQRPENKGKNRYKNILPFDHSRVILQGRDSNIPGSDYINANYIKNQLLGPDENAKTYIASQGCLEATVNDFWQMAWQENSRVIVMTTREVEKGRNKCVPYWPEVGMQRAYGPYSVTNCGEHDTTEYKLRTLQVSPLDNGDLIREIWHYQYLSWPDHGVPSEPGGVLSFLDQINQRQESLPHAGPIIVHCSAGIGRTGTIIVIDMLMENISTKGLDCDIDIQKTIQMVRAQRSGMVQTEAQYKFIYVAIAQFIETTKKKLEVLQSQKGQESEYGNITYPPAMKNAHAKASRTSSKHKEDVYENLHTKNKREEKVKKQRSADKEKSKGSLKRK

HePTP = target: T1, HePTP (Homo sapiens, UniProt P35236); assay: PTP inhibition assay (pNPP); assay type: biochemical; details: pNPP at Km, pH 7.0, 25° C.
T1 sequence (P35236 1-360): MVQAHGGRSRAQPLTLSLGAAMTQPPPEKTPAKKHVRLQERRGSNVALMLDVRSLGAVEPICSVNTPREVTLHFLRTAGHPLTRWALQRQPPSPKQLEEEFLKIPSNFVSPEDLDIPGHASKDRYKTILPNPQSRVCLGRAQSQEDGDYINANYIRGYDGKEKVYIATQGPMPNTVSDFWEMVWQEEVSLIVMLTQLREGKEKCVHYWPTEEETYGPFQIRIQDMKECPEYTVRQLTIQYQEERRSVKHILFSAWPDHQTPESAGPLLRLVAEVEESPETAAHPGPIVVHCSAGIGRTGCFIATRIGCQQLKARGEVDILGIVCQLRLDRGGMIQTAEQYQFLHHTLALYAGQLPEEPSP

Meg2 = target: T2, Meg2 (Homo sapiens, UniProt P43378); assay: PTP inhibition assay (pNPP); assay type: biochemical
T2 sequence (P43378 1-593): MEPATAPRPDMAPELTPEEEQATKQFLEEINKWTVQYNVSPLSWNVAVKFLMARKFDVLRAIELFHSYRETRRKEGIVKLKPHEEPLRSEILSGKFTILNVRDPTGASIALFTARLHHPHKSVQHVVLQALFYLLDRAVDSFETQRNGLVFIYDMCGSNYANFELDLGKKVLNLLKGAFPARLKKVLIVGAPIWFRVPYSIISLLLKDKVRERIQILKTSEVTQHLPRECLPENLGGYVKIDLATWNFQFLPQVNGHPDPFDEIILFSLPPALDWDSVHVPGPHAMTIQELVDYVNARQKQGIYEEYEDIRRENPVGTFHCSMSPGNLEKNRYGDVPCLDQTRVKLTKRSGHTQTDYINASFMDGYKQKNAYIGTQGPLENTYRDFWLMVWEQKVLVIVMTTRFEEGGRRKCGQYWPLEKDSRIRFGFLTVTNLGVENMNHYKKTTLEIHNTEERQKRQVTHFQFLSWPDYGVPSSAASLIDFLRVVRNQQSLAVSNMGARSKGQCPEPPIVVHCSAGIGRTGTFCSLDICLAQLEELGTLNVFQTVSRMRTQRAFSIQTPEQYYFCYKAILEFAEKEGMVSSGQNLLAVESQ

PTPσ = PTPσ (Homo sapiens, UniProt Q13332); assay: PTP inhibition assay (pNPP); assay type: biochemical
PTPσ, sequence (Q13332 30-1948): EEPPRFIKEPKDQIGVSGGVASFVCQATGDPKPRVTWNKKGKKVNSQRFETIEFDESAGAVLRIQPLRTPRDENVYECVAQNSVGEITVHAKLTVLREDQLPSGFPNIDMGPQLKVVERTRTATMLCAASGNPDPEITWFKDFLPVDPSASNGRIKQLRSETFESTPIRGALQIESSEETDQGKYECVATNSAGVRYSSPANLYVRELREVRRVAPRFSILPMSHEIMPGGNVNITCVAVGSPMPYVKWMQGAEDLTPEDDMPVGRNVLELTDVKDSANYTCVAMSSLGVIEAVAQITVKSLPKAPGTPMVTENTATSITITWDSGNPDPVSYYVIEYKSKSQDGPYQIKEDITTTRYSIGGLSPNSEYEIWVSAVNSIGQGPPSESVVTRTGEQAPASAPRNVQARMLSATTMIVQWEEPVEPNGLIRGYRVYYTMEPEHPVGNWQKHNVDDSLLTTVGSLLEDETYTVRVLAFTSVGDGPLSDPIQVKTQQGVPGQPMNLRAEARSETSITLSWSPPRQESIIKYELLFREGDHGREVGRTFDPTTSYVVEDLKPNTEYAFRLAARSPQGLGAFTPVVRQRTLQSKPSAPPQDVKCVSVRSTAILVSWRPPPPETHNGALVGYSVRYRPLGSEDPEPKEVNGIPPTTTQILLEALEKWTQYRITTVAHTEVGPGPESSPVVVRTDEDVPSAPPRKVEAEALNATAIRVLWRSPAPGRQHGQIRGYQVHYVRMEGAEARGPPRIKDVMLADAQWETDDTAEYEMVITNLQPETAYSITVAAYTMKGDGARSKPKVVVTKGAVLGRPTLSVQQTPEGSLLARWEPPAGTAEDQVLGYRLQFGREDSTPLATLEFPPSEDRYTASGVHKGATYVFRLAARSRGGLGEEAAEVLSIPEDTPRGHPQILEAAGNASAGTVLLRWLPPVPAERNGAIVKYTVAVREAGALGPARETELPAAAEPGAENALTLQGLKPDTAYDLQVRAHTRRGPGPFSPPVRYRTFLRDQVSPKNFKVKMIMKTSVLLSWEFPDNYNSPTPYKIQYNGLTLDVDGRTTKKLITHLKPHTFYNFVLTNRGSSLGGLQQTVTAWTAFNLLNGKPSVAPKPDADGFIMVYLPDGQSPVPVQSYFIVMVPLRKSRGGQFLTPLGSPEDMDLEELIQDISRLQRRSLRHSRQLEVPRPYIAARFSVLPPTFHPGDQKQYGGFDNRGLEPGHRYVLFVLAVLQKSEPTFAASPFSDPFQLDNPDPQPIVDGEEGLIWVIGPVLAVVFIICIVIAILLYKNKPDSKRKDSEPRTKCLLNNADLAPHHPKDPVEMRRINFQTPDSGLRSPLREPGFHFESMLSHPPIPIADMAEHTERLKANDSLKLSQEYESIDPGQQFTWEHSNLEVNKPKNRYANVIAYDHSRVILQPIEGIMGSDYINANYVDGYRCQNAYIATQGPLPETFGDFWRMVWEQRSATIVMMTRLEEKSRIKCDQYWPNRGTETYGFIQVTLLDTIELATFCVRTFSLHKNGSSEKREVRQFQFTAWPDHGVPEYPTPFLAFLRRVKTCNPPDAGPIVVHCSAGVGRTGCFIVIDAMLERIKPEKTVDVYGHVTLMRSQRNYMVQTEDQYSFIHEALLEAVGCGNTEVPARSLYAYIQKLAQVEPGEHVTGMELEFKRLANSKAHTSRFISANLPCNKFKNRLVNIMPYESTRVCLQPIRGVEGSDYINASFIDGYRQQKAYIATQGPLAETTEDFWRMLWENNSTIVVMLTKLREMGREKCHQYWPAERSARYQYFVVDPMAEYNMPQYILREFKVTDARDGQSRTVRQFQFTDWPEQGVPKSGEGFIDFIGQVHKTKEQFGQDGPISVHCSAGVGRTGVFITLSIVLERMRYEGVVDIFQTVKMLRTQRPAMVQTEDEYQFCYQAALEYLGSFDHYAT

PTPε = PTPε (Homo sapiens, UniProt P23469); assay: PTP inhibition assay (pNPP); assay type: biochemical
PTPε, sequence (P23469 20-700): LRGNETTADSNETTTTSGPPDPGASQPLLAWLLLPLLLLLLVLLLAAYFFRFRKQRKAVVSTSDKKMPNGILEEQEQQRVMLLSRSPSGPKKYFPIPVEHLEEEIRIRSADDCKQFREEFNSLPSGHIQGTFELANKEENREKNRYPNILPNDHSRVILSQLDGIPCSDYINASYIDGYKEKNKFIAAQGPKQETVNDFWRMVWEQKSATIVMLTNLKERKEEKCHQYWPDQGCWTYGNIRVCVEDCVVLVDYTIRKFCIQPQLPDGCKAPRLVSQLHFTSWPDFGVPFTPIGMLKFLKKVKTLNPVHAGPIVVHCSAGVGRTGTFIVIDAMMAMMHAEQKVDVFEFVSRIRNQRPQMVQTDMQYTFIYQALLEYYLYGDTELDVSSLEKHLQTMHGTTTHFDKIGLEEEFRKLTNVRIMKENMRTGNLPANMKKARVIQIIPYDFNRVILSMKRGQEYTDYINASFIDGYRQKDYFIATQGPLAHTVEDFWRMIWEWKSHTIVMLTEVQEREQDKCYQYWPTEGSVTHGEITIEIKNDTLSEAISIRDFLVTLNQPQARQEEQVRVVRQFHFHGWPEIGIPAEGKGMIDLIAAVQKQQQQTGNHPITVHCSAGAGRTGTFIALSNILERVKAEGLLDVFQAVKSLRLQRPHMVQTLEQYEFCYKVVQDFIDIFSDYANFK

STEP = target: T3, STEP (Homo sapiens, UniProt P54829); assay: PTP inhibition assay (pNPP); assay type: biochemical; details: pNPP at Km, pH 7.0, 25° C.
T3 sequence (P54829 1-565): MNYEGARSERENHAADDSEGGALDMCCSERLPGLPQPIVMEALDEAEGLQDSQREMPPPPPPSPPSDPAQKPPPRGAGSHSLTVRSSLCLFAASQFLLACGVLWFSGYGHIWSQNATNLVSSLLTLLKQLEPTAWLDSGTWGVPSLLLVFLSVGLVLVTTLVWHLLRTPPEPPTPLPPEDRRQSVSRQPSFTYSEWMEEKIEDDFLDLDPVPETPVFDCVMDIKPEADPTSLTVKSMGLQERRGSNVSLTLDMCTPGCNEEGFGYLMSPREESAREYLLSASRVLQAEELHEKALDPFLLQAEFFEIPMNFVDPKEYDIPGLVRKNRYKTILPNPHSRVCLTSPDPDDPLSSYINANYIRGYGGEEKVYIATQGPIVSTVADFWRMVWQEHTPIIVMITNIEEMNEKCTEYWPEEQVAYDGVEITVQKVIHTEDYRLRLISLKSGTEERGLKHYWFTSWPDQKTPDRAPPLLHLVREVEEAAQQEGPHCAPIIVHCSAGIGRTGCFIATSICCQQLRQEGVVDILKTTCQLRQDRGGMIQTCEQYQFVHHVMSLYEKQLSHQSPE

VHR = VHR (Homo sapiens, UniProt P51452); assay: PTP inhibition assay (pNPP); assay type: biochemical; details: pNPP at Km, pH 7.0, 25° C.
VHR, sequence (P51452 whole entry): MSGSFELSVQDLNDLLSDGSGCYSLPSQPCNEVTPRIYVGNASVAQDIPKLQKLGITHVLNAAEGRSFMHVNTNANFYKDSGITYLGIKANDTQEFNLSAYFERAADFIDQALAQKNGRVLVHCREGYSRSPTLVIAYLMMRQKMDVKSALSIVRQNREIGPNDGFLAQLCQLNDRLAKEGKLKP

VHZ = target: T4, VHZ (Homo sapiens, UniProt Q9BVJ7); assay: PTP inhibition assay (pNPP); assay type: biochemical
T4 sequence (Q9BVJ7 1-150): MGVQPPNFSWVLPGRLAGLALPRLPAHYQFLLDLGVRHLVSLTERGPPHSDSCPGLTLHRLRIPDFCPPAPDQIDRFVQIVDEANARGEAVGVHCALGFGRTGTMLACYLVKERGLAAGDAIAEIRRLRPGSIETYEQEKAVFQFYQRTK

Ssu72 = target: T5, Ssu72 (Homo sapiens, UniProt Q9NP77); assay: PTP inhibition assay (pNPP); assay type: biochemical
T5 sequence (Q9NP77 1-194): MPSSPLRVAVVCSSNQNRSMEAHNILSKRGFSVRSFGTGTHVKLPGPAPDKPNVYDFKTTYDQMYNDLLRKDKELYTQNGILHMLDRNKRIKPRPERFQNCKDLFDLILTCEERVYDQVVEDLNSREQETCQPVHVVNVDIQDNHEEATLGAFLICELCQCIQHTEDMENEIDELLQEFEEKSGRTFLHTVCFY

[1] = pNPP at Km, pH 7.0, 25° C., read-out: IC50 Ssu72

Row | SMILES | IC50 (mPTPA; IC50 mPTPA) | IC50 (SHP1) | IC50 (HePTP) | IC50 (Meg2) [µM] | IC50 (PTPσ; read-out: IC50 PTPσ) [µM] | IC50 (PTPε) [µM] | IC50 (STEP; read-out: IC50 STEP) [µM] | IC50 (VHR) [µM] | IC50 (VHZ) [µM] | IC50 (Ssu72; [1]) [µM] | Ki (mPTPA) [µM] | IC50 (PTPσ) [µM] | Mode of mPTPA inhibition (mPTPA) | IC50 (mPTPA; Biochemical potency against target (Ic50, nM) mPTPA) [nM] | IC50 (STEP; IC50 STEP) [µM] | IC50 (Ssu72; IC50 Ssu72) [µM]
1 | O=C(C(c1ccccc1)S(=O)(=O)O)N1CCCC2CCCCC21 (stereo not shown) [Compound L319N53] | > 200000 nM | > 200 µM | > 200 µM | > 200 | > 200 | > 200 | > 200 | > 200 | > 200 | > 200 |  |  |  |  |  | 
2 | O=C(Nc1ccc(N2CCOCC2)cc1)C(c1ccccc1)S(=O)(=O)O (stereo not shown) [Compound L319M68] | 250 nM | > 200 µM | > 200 µM | > 200 |  | > 200 | > 200 | > 200 |  | > 200 | 0.13 | > 200 |  |  |  | 
3 | Cc1c(Br)cc(NC(=O)CS(=O)(=O)O)cc1Br | 160 nM | > 100 µM | > 100 µM | > 100 |  | > 100 |  | > 100 |  |  | 0.056 ± 0.002 |  | reversible and competitive inhibitor | 160 | > 100 | 
4 | CCCCc1ccc(NC(=O)C(=O)Nc2ccccc2NC(=O)C(c2ccccc2)S(=O)(=O)O)cc1 (stereo not shown) [Compound L319-21-M06] |  | > 50 µM | > 50 µM |  |  |  | > 50 | > 50 |  | > 50 |  |  |  |  |  | 
5 | O=C(CS(=O)(=O)O)Nc1ccc2nc(C(F)(F)F)[nH]c2c1 | 650 nM | > 100 µM | > 100 µM | > 100 | > 100 | > 100 | > 100 | > 100 |  | > 100 |  |  |  |  |  | 
6 | O=C(C(c1ccccc1)S(=O)(=O)O)N1CCC(Cc2ccccc2)CC1 (stereo not shown) [Compound L319N46] | > 200000 nM | > 200 µM | > 200 µM | > 200 | > 200 | > 200 | > 200 | > 200 | > 200 | > 200 |  |  |  |  |  | 
7 | O=C(NCCNC(=O)C(c1ccccc1)S(=O)(=O)O)c1cccc(C(=O)c2ccccc2)c1 (stereo not shown) [Compound L319-02-A60] |  | > 200 µM | > 200 µM |  |  |  | > 200 | > 200 |  | > 200 |  |  |  |  |  | 
8 | O=C(Nc1cccc(OCc2ccccc2)c1)C(=O)Nc1ccccc1NC(=O)C(c1ccccc1)S(=O)(=O)O (stereo not shown) [Compound L319-21-M52] |  | > 50 µM | > 50 µM |  |  |  | > 50 | > 50 |  | > 50 |  |  |  |  |  | 
9 | O=C(C(c1ccccc1)S(=O)(=O)O)N1CCC(c2ccc(Cl)c(Cl)c2)CC1 (stereo not shown) [Compound L319N47] | 11300 nM | 66 µM | 77 µM | 147 | > 200 | > 200 | > 200 | 99 | 80 | > 200 |  |  |  |  |  | 
10 | O=C(Nc1ccc(-c2ccccc2)cc1)C(c1ccccc1)S(=O)(=O)O (stereo not shown) [Compound L319N08] |  | 64.6 µM | 78 µM |  |  |  |  | > 200 |  |  |  |  |  |  | > 100 | 72.9
11 | O=C(Nc1ccc2nc(C(F)(F)F)[nH]c2c1)C(c1ccccc1)S(=O)(=O)O (stereo not shown) [Compound L319M54] | 265 nM and 270 nM | > 200 µM | > 200 µM | > 200 |  | > 200 | > 200 | > 200 | > 200 | > 200 |  | > 200 |  |  |  | 
12 | O=C(CS(=O)(=O)O)Nc1nc2ccc([N+](=O)[O-])cc2s1 [Compound L335N15-07] |  | > 100 µM | > 100 µM | > 100 | > 100 | > 100 | > 100 | > 100 |  | > 100 |  |  |  |  |  | 
13 | O=C(Nc1nc2ccccc2s1)C(c1ccccc1)S(=O)(=O)O (stereo not shown) [Compound L319N15] | 194 nM | > 200 µM and 59.6 µM | 50 µM | > 200 |  | > 200 | > 200 | > 200 | > 200 | 69 |  | > 200 |  |  |  | 
14 | O=C(CS(=O)(=O)O)Nc1nc2ccccc2s1 [Compound L335N15] | 263 nM | > 100 µM | > 100 µM | > 100 | > 100 | > 100 | > 100 | > 100 |  | > 100 |  |  |  |  |  | 
15 | O=C(Nc1ccc(OCc2ccccc2)c(Cl)c1)C(c1ccccc1)S(=O)(=O)O (stereo not shown) [Compound L319M50] |  | 53.2 µM | > 100 µM |  |  |  | > 200 | > 200 |  | 66.6 |  |  |  |  |  | 
16 | O=C(Nc1cnc2ccccc2c1)C(c1ccccc1)S(=O)(=O)O (stereo not shown) [Compound L319M88] | 143 nM | > 200 µM | > 200 µM | > 200 |  | > 200 | > 200 | > 200 |  | > 200 |  | > 200 |  |  |  | 
17 | O=C(Nc1cccc(OCc2ccccc2)c1)C(c1ccccc1)S(=O)(=O)O (stereo not shown) [Compound L319M52] | 560 nM | > 200 µM and 62.3 µM | 130 µM and > 100 µM | > 200 | > 200 | > 200 | > 200 | > 200 | > 200 | 97.6 |  |  |  |  |  | 
18 | O=C(CS(=O)(=O)O)Nc1cnc2ccccc2c1 | 3000 nM | > 100 µM | > 100 µM | > 100 | > 100 | > 100 | > 100 | > 100 |  | > 100 |  |  |  |  |  | 
19 | Cc1c(Br)cc(NC(=O)C(c2ccccc2)S(=O)(=O)O)cc1Br (stereo not shown) [Compound L319M34] | 196 nM | 55.5 µM | > 100 µM |  |  |  |  |  |  |  |  |  |  |  | > 200 | > 100
20 | O=C(NCc1ccc(NC(=O)C(c2ccccc2)S(=O)(=O)O)cc1)c1ccccc1-c1ccc(C(F)(F)F)cc1 (stereo not shown) [Compound L319-05-A64] |  |  | 150 µM |  |  |  | > 100 |  |  | 170 |  |  |  |  |  | 
